Entries after “also recorded” stand apart in the source; their conditions may differ.
How the values were obtained:
[1] = 28-day rat gavage study: Biochemistry and urinalysis; format: in vivo, rat (Crl:CD®BR); settings: 28 days
Method: (§1) D-allose or deionized water was administered to 15 male and 15 female rats (Crl:CD®BR rats approximately 4 weeks of age from Charles River Laboratories) by gavage once daily for 28 days at dosage levels of D-allose of 3.1 and 5.1 g/Kg/day.
(§2) Each rat was observed twice daily for mortality, morbidity and overt signs of toxicity. Detailed observations were performed once during each study week. Individual body weights, food consumption, food efficiency and water consumption were recorded daily. Hematology, biochemistry and urinalysis evaluations were conducted on all male and female animals during the last week of study. At study termination, all animals were euthanized. […] A complete set of major tissues and organs was harvested and selected organ weights were determined. Protocol-specified tissues were processed histologically and microscopic examination was conducted.
(§3) Clinical laboratory studies were conducted on all main animals at termination of study. Blood samples were obtained from the orbital sinus following an overnight fasting period in which water was available. Urine was collected during the fasting period.

water solubility = format: physicochemical
human lymphocytes = format: cell-based
Description: 5) sister chromatid exchange in human lymphocytes with and without activation.

mouse lymphoma = format: cell-based
Description: 2) mouse lymphoma forward mutation assay;

salmonella = experiment: salmonella/mammalian--microsome reverse mutation assay; format: cell-based
Description: 1) salmonella/mammalian--microsome reverse mutation assay;

Male Rats = experiment: Acute Oral Toxicity Study in Male Rats; format: in vivo, rat
Description: Acute Oral Toxicity Study in Male Rats

bone marrow = experiment: 28-day rat gavage study: Bone Marrow smears; format: in vivo, rat (Crl:CD®BR)
Method: as §1, §2
(§4) As a result, bone marrow smears were examined for all animals.

[2] = rat, in vivo
Description: (§5) This study was patterned after that Example 1 where a satellite group of animals received radiolabeled D-allose to establish excretion routes. On day 28, the animals in the satellite groups (5 controls, 5 males and 5 females) received a single dose of [^14 C]D-allose for-study days 1-28 at the same dose concentration as the non-radiolabeled material except for the "Control Satellite Group" which received a single high dose containing radiolabeled D-allose.
(§6) On days 1-27, all control group animals (main and satellite) received deionized water at the same dosage volume as the test animals. However, on day 28 the satellite control animals became "Unadapted High Dose Test Animals" in that they received a high dose (5.1 g/kg) of radiolabeled D-allose. In this manner the "Unadapted High Dose Test Animals" could be directly compared to the multiple high dose animals which were adapted by administration of the high dose for 28 days.
HPLC (High Pressure Liquid Chromatography) of urine from treated animals was compared with C^14 radiolabeled D-allose spiked urine from control animals.

[3] = test system: segmented neutrophils, leukocytes, erythrocytes, platelets; experiment: 28-day rat gavage study: Hematology (blood cell counts); format: in vivo, rat (Crl:CD®BR); settings: for Segmented Neutrophils (mean): terminal (28 days); for Segmented Neutrophils (mean) / Band Neutrophils (mean) / Basophils (mean) / Other Cells (mean) / Eosinophils (mean) / Monocytes (mean) / Erythrocytes (mean) / Leukocytes (mean) / Platelets (mean) / Lymphocytes (mean): N 5; for Band Neutrophils (mean) / Basophils (mean) / Other Cells (mean) / Eosinophils (mean) / Monocytes (mean) / Erythrocytes (mean) / Leukocytes (mean) / Platelets (mean) / Lymphocytes (mean): terminal; for Band Neutrophils (mean) / Basophils (mean) / Other Cells (mean): control 0.0; for Leukocytes (mean): control 9.6; for Platelets (mean): p ≤ 0.01; for Lymphocytes (mean): control 7.4
Method: as §1, §2, §3, §4

major tissues and organs = experiment: 28-day rat gavage study: Anatomic Pathology (necropsy and histopathology); format: in vivo, rat (Crl:CD®BR); settings: 28 days gavage, listed organs
Method: as §1, §2

Balb cells = format: cell-based
Description: 4) in vitro transformation of Balb cells;

Crl:CD®BR rats = test system: Crl:CD®BR rats; design: species or system rat (Crl:CD®BR); settings: rat, in vivo
Method: as §1, §2
The rats were observed twice daily for signs of overt toxicity at the times of the morbidity/mortality checks. Detailed observations were conducted once each study week during the 28 days of the study.
Individual body weights were recorded daily for the 28 days of the study.
For the first 28 days of the study, individual food consumption was recorded daily and food efficiency was calculated. […] Increases and decreases occurred in food efficiency values for males and females at all treatment levels, with no obvious trend.
Individual water consumption was recorded daily for the 28 days of the study.

[4] = D-allose Excretion Routes ([^14 C]D-allose, liquid scintillation counting); format: in vivo, rat
Description: as §5, §6
Each rat was observed twice daily for mortality, morbidity and overt signs of toxicity. Detailed observations were performed once during each study week. Individual body weights, food consumption, food efficiency and water consumption were recorded daily. […] Feces samples were collected at 24, 48, 72 and 96 hours after radiolabeled dosing from the satellite group animals. Duplicate aliquots of expired air solution, urine, feces and cage wash were analyzed by liquid scintillation counting (LSC). At study termination, all animals were euthanized. The carcasses from the satellite groups were analyzed for radioactive content only.

[5] = test system: chinese hamster ovary cells; format: cell-based
Description: 3) chromosomal aberrations in chinese hamster ovary cells;

[6] = acute oral, 5 grams/Kg, male rats
[7] = females, D-allose 3.1 g/kg/day, control 0.1
[8] = males, D-allose 3.1 g/kg/day, control 0.2
[9] = males, D-allose 5.1 g/kg/day, control 0.2

O=C[C@H](O)[C@H](O)[C@H](O)[C@H](O)CO [D-allose]
Cholesterol ([1]; males, high dose (5.1 g/kg/day), vs. 51 mg/dl, significantly increased): 72 mg/dL | pH ([1]; treated animals): decreased | Urine volumes ([1]; treated groups): decreased | urine specific gravity ([1]; treated groups): increased | water solubility (water solubility): high water solubility | mutagenic properties (human lymphocytes): no mutagenic properties | mutagenic properties (mouse lymphoma): no mutagenic properties | mutagenic properties (salmonella): no mutagenic properties | body weight changes (Male Rats; [6]): no remarkable body weight changes | mortalities (Male Rats; [6]): no mortalities | pharmacotoxic signs (Male Rats; [6]): no pharmacotoxic signs | visible post-mortem abnormalities (Male Rats; rat, in vivo, po): no visible post-mortem abnormalities | numbers of late stage neutrophils in bone marrow (bone marrow; 3.1 and 5.1 g/kg/day, most striking in the high dose groups): decreased numbers of late stage neutrophils | mature myeloid cells in the bone marrow smears (bone marrow; 28 days gavage, rats): marked reduction in mature myeloid cells | bone marrow erythroid series (bone marrow; all groups): well represented with a normal maturation sequence | cytological integrity of the cells in the neutrophil series (bone marrow; both dosage groups (3.1 and 5.1 g/kg/day)): overall decrease in cytological integrity | Myeloid to erythroid ratios in bone marrows (bone marrow; both treatment groups, usually, control approximately 1.6 to 3.0): less than 1.0 | bone marrow cellularity and megakaryocytes (bone marrow; control and both treatment groups): very cellular with adequate numbers of active megakaryocytes in varying stages of maturity | HPLC of urine from treated animals [2]: major peak corresponding to the spiked D-allose peak | undigested D-allose in the urine [2]: confirmed the presence of undigested D-allose in the urine | segmented neutrophils in some high dose group animals ([3]; 5.1 g/Kg/day, 28 days): very low or not countable | platelets (result in words) ([3]; 28 days gavage, 3.1 and 5.1 g/Kg/day, both sexes): significant reduction in platelet formation; also recorded: dose-related reduction in numbers in both sexes; also recorded: dose-related reduction in platelet counts in both sexes | segmented neutrophils (result in words) ([3]; 28 days gavage, 3.1 and 5.1 g/Kg/day, rats): dose-related reduction in segmented neutrophil production; also recorded: marked decrease in segmented neutrophils which was dose-related; also recorded: reduction in segmented neutrophils | effect on the erythroid series ([3]; 28 days gavage, rats): no apparent effect on the erythroid series | total leukocyte counts (result in words) ([3]; 28 days gavage, rats): reductions in total leukocyte counts | Segmented Neutrophils (mean) ([3]; females, D-allose 3.1 g/kg/day, control 1.8): 0.5 × 10^3 /cmm | Band Neutrophils (mean) ([3]; females, D-allose 3.1 g/kg/day): 0.0 × 10^3 /cmm | Basophils (mean) ([3]; females, D-allose 3.1 g/kg/day): 0.0 × 10^3 /cmm | Other Cells (mean) ([3]; females, D-allose 3.1 g/kg/day): 0.0 × 10^3 /cmm | Eosinophils (mean) [3, 7]: 0.1 × 10^3 /cmm | Monocytes (mean) [3, 7]: 0.1 × 10^3 /cmm | Erythrocytes (mean) ([3]; females, D-allose 3.1 g/kg/day, control 6.17): 6.24 × 10^6 /cumm | Leukocytes (mean) ([3]; females, D-allose 3.1 g/kg/day): 6.5 × 10^3 /cumm | Platelets (mean) ([3]; females, D-allose 3.1 g/kg/day, control 992): 567 × 10^3 /cmm | Segmented Neutrophils (mean) ([3]; females, D-allose 5.1 g/kg/day, control 1.8): 0.1 × 10^3 /cmm | Band Neutrophils (mean) ([3]; females, D-allose 5.1 g/kg/day): 0.0 × 10^3 /cmm | Basophils (mean) ([3]; females, D-allose 5.1 g/kg/day): 0.0 × 10^3 /cmm | Other Cells (mean) ([3]; females, D-allose 5.1 g/kg/day): 0.0 × 10^3 /cmm | Eosinophils (mean) ([3]; females, D-allose 5.1 g/kg/day, control 0.1): 0.1 × 10^3 /cmm | Erythrocytes (mean) ([3]; females, D-allose 5.1 g/kg/day, control 6.17): 6.42 × 10^6 /cumm | Leukocytes (mean) ([3]; females, D-allose 5.1 g/kg/day): 5.4 × 10^3 /cumm | Platelets (mean) ([3]; females, D-allose 5.1 g/kg/day, control 992): 414 × 10^3 /cmm | Segmented Neutrophils (mean) ([3]; males, D-allose 3.1 g/kg/day, control 1.9): 0.9 × 10^3 /cmm | Band Neutrophils (mean) ([3]; males, D-allose 3.1 g/kg/day): 0.0 × 10^3 /cmm | Basophils (mean) ([3]; males, D-allose 3.1 g/kg/day): 0.0 × 10^3 /cmm | Other Cells (mean) ([3]; males, D-allose 3.1 g/kg/day): 0.0 × 10^3 /cmm | Eosinophils (mean) [3, 8]: 0.1 × 10^3 /cmm | Monocytes (mean) [3, 8]: 0.1 × 10^3 /cmm | Erythrocytes (mean) ([3]; males, D-allose 3.1 g/kg/day, control 6.85): 7.10 × 10^6 /cumm | Lymphocytes (mean) ([3]; males, D-allose 3.1 g/kg/day): 9.1 × 10^3 /cmm | Leukocytes (mean) ([3]; males, D-allose 3.1 g/kg/day): 10.3 × 10^3 /cumm | Platelets (mean) ([3]; males, D-allose 3.1 g/kg/day, control 1072): 546 × 10^3 /cmm | Segmented Neutrophils (mean) ([3]; males, D-allose 5.1 g/kg/day, control 1.9): 0.2 × 10^3 /cmm | Band Neutrophils (mean) ([3]; males, D-allose 5.1 g/kg/day): 0.0 × 10^3 /cmm | Basophils (mean) ([3]; males, D-allose 5.1 g/kg/day): 0.0 × 10^3 /cmm | Other Cells (mean) ([3]; males, D-allose 5.1 g/kg/day): 0.0 × 10^3 /cmm | Eosinophils (mean) [3, 9]: 0.1 × 10^3 /cmm | Monocytes (mean) [3, 9]: 0.1 × 10^3 /cmm | Erythrocytes (mean) ([3]; males, D-allose 5.1 g/kg/day, control 6.85): 7.03 × 10^6 /cumm | Lymphocytes (mean) ([3]; males, D-allose 5.1 g/kg/day): 5.6 × 10^3 /cmm | Leukocytes (mean) ([3]; males, D-allose 5.1 g/kg/day, significantly different from control): 5.9 × 10^3 /cumm | Platelets (mean) ([3]; males, D-allose 5.1 g/kg/day, control 1072): 320 × 10^3 /cmm | duration of suppressive effect ([3]; rats, suppression of segmented neutrophil and platelet production): remains only so long as D-allose administration is continued | findings at necropsy or on histopathological examination (major tissues and organs): no treatment related findings | mutagenic properties (Balb cells): no mutagenic properties | effect on appearance or behavior (clinical signs) (Crl:CD®BR rats): no definitive D-allose-related effect | mean food consumption values or mean food efficiency values (Crl:CD®BR rats): no D-allose-related effect | mean water consumption values (Crl:CD®BR rats): no D-allose-related effect | radioactivity retained in carcass ([4]; all groups): less than 1% | excretion of radiolabel in the feces, of the recovered dose ([4]; corrected for recovery): 6 to 9% | urinary excretion, of the recovered dose ([4]; corrected for recovery, average, all three test groups): approximately 90% | differences in the rates or routes of excretion between treatment groups ([4]; radiolabeled D-allose): no substantial differences | radioactivity excretion routes ([4]; radiolabeled D-allose, rats): most of the radioactivity was excreted in the urine with a small amount in the feces and lesser amounts in exhaled air and retained in the carcass | Radiation in exhaled air ([4]; rat, in vivo): less than 0.5% | effects on survival, appearance, behavior, body weights, food consumption or water consumption ([4]; rat, in vivo): no D-allose-related effects | mutagenic properties [5]: no mutagenic properties

Reference: US5620960A, “Use of D-allose as an immunosuppressive agent” (UOP, priority 1994, dated 1997)
